This is an account of results in publication PMC8766756, “Insights on Cancer Cell Inhibition, Subcellular Activities, and Kinase Profile of Phenylacetamides Pending 1H-Imidazol-5-One Variants” (Frontiers in Pharmacology, 2022).

Holding throughout (experiment): PamChip tyrosine kinase microarray
Holding throughout (format): biochemical
What all share (conditions): 0.1 µM, HL60 lysate

Assay [1] deals with T1, Abl (P00519) (Homo sapiens, UniProt P00519).
T1 construct: purchased PamGene (PamChip PTK array, Upstream Kinase Analysis)
The gist of the method:
(§1)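 HL60 (AML) cell lysate was spiked with compound at 0.001, 0.01, 0.1, 1, 10 and 50 µM, or 2% v/v DMSO as control, then profiled in technical replicates on a tyrosine kinase peptide array of 196 phosphosites. Kinase activity was inferred from peptide-set changes using an upstream kinase tool.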

For assay [2], the target named is T2, EphA3 (P29320) (Homo sapiens, UniProt P29320).
T2 construct: purchased PamGene (PamChip PTK array, Upstream Kinase Analysis)
T2 sequence (P29320 21-983): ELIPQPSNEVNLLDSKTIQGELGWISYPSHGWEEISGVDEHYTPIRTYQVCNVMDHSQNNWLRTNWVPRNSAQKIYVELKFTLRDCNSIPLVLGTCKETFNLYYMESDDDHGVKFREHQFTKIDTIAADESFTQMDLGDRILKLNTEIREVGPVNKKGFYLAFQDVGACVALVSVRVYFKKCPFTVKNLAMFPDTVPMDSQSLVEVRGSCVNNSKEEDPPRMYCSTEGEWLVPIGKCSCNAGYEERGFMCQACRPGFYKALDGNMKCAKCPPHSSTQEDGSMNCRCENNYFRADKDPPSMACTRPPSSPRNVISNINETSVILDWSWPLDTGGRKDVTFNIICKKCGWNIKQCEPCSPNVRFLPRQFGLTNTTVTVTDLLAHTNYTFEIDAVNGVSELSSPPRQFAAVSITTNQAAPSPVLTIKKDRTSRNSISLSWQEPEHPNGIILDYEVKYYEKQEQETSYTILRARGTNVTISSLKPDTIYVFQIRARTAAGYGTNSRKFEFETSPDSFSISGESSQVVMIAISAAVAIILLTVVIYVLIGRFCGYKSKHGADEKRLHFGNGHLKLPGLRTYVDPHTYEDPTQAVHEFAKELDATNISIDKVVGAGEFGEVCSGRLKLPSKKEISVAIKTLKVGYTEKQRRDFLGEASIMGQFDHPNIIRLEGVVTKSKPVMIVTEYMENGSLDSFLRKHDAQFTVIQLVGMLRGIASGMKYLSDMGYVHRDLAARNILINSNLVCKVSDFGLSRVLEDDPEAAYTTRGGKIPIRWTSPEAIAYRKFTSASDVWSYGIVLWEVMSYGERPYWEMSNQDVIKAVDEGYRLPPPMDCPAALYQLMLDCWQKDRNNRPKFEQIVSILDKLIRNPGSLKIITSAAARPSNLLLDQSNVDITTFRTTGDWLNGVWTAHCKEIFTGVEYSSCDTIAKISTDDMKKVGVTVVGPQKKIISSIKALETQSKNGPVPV
The gist of the method: as §1

Assay [3] has as its target T3, FLT1 (P17948) (Homo sapiens, UniProt P17948).
T3 construct: purchased PamGene (PamChip PTK array, Upstream Kinase Analysis)
The gist of the method:
as §1

Values joined by “and” are separate entries in the source; they are usually repeats but may differ in a detail not shown here. Equal entries are not always repeated.

T3 sequence (P17948 27-1338): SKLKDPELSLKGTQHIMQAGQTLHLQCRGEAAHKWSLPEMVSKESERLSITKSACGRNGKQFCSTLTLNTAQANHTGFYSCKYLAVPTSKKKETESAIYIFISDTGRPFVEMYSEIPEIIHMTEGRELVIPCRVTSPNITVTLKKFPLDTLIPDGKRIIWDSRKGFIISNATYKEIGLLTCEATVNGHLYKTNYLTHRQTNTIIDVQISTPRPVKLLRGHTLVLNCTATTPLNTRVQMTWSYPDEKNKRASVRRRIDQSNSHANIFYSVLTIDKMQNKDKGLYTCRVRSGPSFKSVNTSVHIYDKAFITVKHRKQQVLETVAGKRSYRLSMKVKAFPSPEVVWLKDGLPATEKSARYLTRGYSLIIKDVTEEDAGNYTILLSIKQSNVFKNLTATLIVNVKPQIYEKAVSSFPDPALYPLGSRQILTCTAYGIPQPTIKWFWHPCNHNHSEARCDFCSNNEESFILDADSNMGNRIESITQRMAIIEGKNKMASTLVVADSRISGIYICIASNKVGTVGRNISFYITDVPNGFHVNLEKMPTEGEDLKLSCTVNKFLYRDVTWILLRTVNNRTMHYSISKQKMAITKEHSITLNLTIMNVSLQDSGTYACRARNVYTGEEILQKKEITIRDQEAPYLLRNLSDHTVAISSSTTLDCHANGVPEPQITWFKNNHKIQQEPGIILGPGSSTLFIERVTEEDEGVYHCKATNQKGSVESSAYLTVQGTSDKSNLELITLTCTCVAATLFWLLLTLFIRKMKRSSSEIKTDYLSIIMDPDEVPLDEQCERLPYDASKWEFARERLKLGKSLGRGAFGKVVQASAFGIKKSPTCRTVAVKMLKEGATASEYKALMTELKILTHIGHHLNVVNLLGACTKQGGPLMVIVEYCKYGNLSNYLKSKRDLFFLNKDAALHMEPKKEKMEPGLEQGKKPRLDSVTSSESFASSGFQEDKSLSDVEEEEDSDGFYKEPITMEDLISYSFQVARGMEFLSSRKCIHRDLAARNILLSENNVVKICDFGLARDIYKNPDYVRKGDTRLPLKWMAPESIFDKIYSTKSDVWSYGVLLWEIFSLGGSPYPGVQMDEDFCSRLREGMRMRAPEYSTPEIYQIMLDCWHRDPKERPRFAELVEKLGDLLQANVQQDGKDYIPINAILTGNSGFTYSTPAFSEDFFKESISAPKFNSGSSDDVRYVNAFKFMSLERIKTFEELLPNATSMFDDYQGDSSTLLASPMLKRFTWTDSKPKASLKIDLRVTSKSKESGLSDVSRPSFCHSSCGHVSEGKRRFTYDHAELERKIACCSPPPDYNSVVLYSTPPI
T1 sequence (P00519 whole entry): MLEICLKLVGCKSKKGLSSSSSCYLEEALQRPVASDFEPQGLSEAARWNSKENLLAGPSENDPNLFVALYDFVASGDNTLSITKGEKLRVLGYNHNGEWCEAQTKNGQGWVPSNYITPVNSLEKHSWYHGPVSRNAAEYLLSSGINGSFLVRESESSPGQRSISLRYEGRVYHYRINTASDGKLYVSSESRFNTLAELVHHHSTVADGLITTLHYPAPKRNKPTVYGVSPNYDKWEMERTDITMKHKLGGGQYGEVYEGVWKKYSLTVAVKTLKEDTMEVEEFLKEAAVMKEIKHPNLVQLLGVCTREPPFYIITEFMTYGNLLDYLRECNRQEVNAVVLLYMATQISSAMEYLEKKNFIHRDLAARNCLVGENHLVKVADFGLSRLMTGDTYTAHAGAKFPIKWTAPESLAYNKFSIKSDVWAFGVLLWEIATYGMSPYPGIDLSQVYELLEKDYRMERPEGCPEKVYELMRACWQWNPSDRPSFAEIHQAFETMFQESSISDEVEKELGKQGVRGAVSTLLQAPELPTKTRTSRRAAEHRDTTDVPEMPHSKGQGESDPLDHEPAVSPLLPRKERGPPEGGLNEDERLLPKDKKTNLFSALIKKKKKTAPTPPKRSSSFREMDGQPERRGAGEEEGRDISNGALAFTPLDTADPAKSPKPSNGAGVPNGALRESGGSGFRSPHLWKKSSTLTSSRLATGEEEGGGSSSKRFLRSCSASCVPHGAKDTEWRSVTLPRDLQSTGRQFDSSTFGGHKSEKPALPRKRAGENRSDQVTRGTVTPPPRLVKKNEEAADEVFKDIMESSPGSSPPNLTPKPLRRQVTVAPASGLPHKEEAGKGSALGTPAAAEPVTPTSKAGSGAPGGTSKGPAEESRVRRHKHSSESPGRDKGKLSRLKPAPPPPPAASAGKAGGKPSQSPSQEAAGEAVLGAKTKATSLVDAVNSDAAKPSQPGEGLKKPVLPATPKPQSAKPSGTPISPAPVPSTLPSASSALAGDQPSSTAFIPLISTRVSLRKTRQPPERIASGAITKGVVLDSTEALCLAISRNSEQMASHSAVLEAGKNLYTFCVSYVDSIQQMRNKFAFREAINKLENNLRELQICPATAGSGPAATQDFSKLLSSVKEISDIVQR

For the molecule `COc1ccc(/C=C2\N=C(C)N(c3ccc(CC(=O)NCc4ccccc4)cc3)C2=O)cc1` [Compound 4c, (Z)-N-Benzyl-2-(4-(4-(4-methoxybenzylidene)-2-methyl-5-oxo-4,5-dihydro-1H-imidazol-1-yl)phenyl)acetamide], in assay [1], the “Mean Final score (Kinase score)” value turned out to be 2.191, the “Mean Kinase Statistic” value was -1.128, the “Mean Significance Score” value was 1.966 and the “Mean Specificity Score” value is 0.1837. Besides, in assay [2], the “Mean Final score (Kinase score)” value amounted to 1.273, the “Mean Kinase Statistic” value was -0.7527, the “Mean Significance Score” value worked out at 1.23 and the “Mean Specificity Score” value is on record as 0.04291. For the same molecule, in assay [3], the “Mean Significance Score” value was found to be 2.048 and the “Mean Specificity Score” value is on record as 1.113. For the same molecule, the “Mean Final score (Kinase score)” value in assay [3] (listed as KIM-161) is 3.23 and 3.228.
